Measurements reported in patent US20250288599A1, “PHARMACEUTICAL COMPOSITIONS AND METHODS FOR TREATING OSTEOARTHRITIS” (INSIGNIA PHARMACEUTICALS, LLC, priority 2024, published 2025).

What was measured:
[1] = system: PGE2 release from normal human chondrocytes; experiment: IL-1β-induced PGE2 release from normal human chondrocytes, 24 h, DA vs decanoate working solutions; type: cell-based; conditions: for inhibition at 25 µM: Homo sapiens, Chondrocyte, 25 micromolar
Method: The activity of DA working solutions prepared in either saline or lactated ringer's (LR) isotonic solutions was assessed. […] In addition, concentrated decanoate working solutions in saline or LR were prepared and added to the cultures at a final concentration of 25 micromolar. PGE2 release was then compared to matching points on the DA or decanoate medium as well as saline and LR controls.

[2] = system: IL-1β release from human THP1 macrophages; experiment: Two-hit (LPS then ATP) inflammasome activation model, IL-1β release from THP1 macrophages; type: cell-based; conditions: for IC50: Homo sapiens
Description: The proinflammatory cytokine, IL-1β, is released from cells upon activation of the inflammasome, a multi-protein proinflammatory complex. A two-hit model of inflammasome activation in THP1 macrophages was developed that entails an overnight stimulation with LPS followed by a second proinflammatory stimulus, extracellular ATP, which drives inflammasome assembly and subsequent IL-1β release from the cells into the media.

[3] = system: PGE2 release from passage 3 normal human chondrocytes; experiment: Rescue versus preincubation regimens, IL-1β-induced PGE2 release from passage 3 normal human chondrocytes; type: cell-based; conditions: Homo sapiens, Chondrocyte, 25 μM Dec, singlet
Description: The mechanisms of action (MOA) of a drug often dictate the timing and delivery of treatment regimens. While the MOA of compounds disclosed herein continue to be elucidated, experiments were designed to help establish how the drugs should be administered. Furthermore, these experiments will also help with hypothesis generation for subsequent MOA investigations. A low-passage chondrocyte monolayer model was utilized to establish how changes in drug delivery impact the inhibition of IL-1β-induced PGE2 release seen following treatment with the compounds under investigation.
Passage 3 normal human chondrocytes were seeded into tissue culture plates and then tested for compound activity by pre-treating for 24 hours, administering at the same time as activation, or by adding to cells following an overnight activation with IL-1β. Treatment groups included medium control, 25 μM decanoate (Dec), 28 mM D/L sodium Lac, and 10 μM LA. PGE2 release was then evaluated 24- or 96-hours post-activation with percent inhibitions calculated versus plate- and block-matched controls. The experiments were performed in singlet and are intended to be repeated to establish variance.

[4] = system: PGE2 release from normal human chondrocytes; experiment: IL-1β-induced PGE2 release from normal human chondrocyte monolayers, 48 h, competitive EIA; type: cell-based
Method: Mechanical stress and inflammation are thought to sustain catabolic cycles of extracellular matrix deterioration during osteoarthritis. In particular, PGE2 correlates with increased protease production and discomfort or pain in osteoarthritis.
After 48-hours, PGE2 release was evaluated by competitive EIA, and relative potency was calculated versus dose responses of Dex alone.
After 48 hours, PGE2 release was evaluated by competitive enzyme immunoassay (EIA), and relative potency was calculated versus Dex alone.
Lac is commonly thought to be simply an end-product of anaerobic glycolysis; however, it may also have immunomodulatory effects and promote protein modifications that alter gene expression. The goal of this experiment was to determine how Lac supplementation affects early-phase, inflammatory, and late-stage redifferentiation in chondrocyte models. To establish how Lac may influence inflammation early in osteoarthritis, monolayers of normal human chondrocytes were exposed to Lac dose responses of up to 100 millimolar, concurrently with 0.5 nanograms per milliliter IL-1β for 48 hours. The release of PGE2 was then quantified using competitive EIA. To investigate how Lac affects transcriptional programs in dedifferentiated osteoarthritic chondrocytes, monolayer cultures and micromass pellets were treated for 14 days with 100 millimolar final concentrations of Lac, with and without 10 nanograms per milliliter transforming growth factor beta 3 (TGF-β3). Total RNA was then isolated, and relative expression of SOX9 or Col2a1 was calculated using qRT-PCR, normalized to GAPDH.

[5] = system: MMP13 expression in primary human chondrocytes from an osteoarthritic patient; experiment: MMP13 relative expression in primary human osteoarthritic chondrocytes treated with HA and/or Dex; type: cell-based; conditions: 0.1% HA, 0.1 μM Dex
Method: Without being bound by theory, it is hypothesized that HA treatment in combination with Dex could provide a therapeutic strategy that promotes HA's beneficial effects while maintaining Dex's anti-inflammatory response. To investigate this, primary human chondrocytes from an osteoarthritic patient were treated with 0.1% HA and/or 0.1 μM Dex in monolayer culture or micromass pellets for 14 to 28 days. Total mRNA was then extracted, and qRTPCR was performed with primer pairs specific for MMP13 and the housekeeping gene GAPDH. Relative expression was then calculated versus controls, with each sample normalized to GAPDH amplification.

[6] = system: SOX9 expression in human osteoarthritic chondrocytes; experiment: SOX9 relative expression in high and low passage osteoarthritic chondrocytes, 7, 14 or 28 days; type: cell-based
Description: Media was exchanged bi-weekly. […] SOX9 is a transcription factor vital to the development and maintenance of cartilage and is required for chondrogenesis. SOX9 promotes chondrocyte survival and transcriptionally activates cartilage-specific genes. SOX9 is repressed in hypertrophic chondrocytes (i.e. terminally differentiated osteoblast-like cells).

[7] = system: MMP13 expression in human osteoarthritic chondrocytes; experiment: MMP13 relative expression in high and low passage osteoarthritic chondrocytes; type: cell-based; conditions: low passage osteoarthritic chondrocytes; 7, 14, 28 days
[8] = system: Col2a1 expression in dedifferentiated osteoarthritic chondrocytes; experiment: Col2a1 relative expression in high passage osteoarthritic chondrocyte monolayer model with TGF-β; type: cell-based, human; conditions: 14 days in culture with TGF-β; 28 mM Lac, 100 mm LA
Method: (§1) These compounds were tested in a high passage osteoarthritic chondrocyte monolayer model, alone or in combination with other agents, for both transcriptional regulation of standard markers and IL-1β-induced PGE2 production.

[9] = system: SOX9 expression in dedifferentiated osteoarthritic chondrocytes; experiment: SOX9 relative expression in high passage osteoarthritic chondrocyte monolayer model with TGF-β; type: cell-based, human; conditions: 14 days in culture with TGF-β; 28 mM Lac, 100 mm LA
Method: as §1

[10] = system: PGE2 release from dedifferentiated osteoarthritic chondrocytes; experiment: IL-1β-induced PGE2 release in high passage osteoarthritic chondrocyte monolayer model, 24 h; type: cell-based; conditions: Homo sapiens
Method: as §1

[11] = system: PGE2 in primary human osteoarthritic synoviocytes; experiment: Early, pretreatment and intracellular vs secreted PGE2 in IL-1β-stimulated human osteoarthritic synoviocytes; type: cell-based; conditions: 200 nanomolar DA or 500 nanograms/milliliter IL-1RA; IL-1β 1 nanogram/milliliter
Method: The concentrations in FIG. 31A were measured at hour three.
Cells were also treated with IL-IRA which inhibits IL-1β by binding the cell-surface […] and inhibiting its dimerization with the IL-1 receptor (IL-1R), effectively blocking IL-1β signaling.
FIG. 33 illustrates two bar graphs that depict the concentrations of PGE2 inside of the cell versus PGE2 that was secreted into the cell culture media. Specifically, the bar graph labeled “Intracellular” illustrates the concentrations of PGE2 inside of the cell and the bar graph labeled “Supernatent” illustrates the concentration of PGE2 that was secreted into the cell culture media. Synoviocytes were stimulated with IL-1β for 6 hours and then cell culture media harvested separately along with collecting cell lysates. […] To test this, the PGE2 concentrations inside of the cells and in the cell culture media were measured to compare them directly to each other.

[12] = 24 h, rescue (added after overnight IL-1β activation), 24-hour harvest, 28 mM Lac, 10 μM LA
[13] = 14-day micromass pellet culture
[14] = high passage, dedifferentiated osteoarthritic chondrocytes with TGF-β3, 14 days

CCCCCCCCCC(=O)[O-].[Na+] [Dec, sodium decanoate]
relative potency of decanoate as compared to DA ([1]; 95 percent confidence interval of 0.80-1.06): 0.92
inhibition at 25 µM ([1]; prepared in LR): 65.2%
inhibition at 25 µM ([1]; prepared in medium): 62.3%
inhibition at 25 µM ([1]; prepared in saline): 63.2%
increase in potency of sodium decanoate by 25 nanomolar Dex [2]: 4.6 ×
IC50 ([2]; THP-1, repeated experiments comparing DA to sodium decanoate): 146 µM
IC50 ([2]; THP-1, sodium decanoate with addition of 25 nanomolar Dex): 31.5 µM
inhibition at 25 µM ([3]; 24 h, added at the same time as IL-1β, 24-hour harvest): 53%
inhibition at 25 µM [3, 12]: 72%
inhibition at 25 µM ([3]; 96 h, added at the same time as IL-1β, 96-hour harvest): 76%
inhibition at 25 µM ([3]; 96 h, rescue, 96-hour harvest, 28 mM Lac, 10 μM LA): 57%
inhibition at 25 µM ([3]; pre-incubation 24 hours before IL-1β, 24-hour harvest, 28 mM Lac, 10 μM LA): 41%
inhibition at 25 µM ([3]; pre-incubation, 96-hour harvest): 75%

C[C@@H]1C[C@H]2[C@@H]3CCC4=CC(=O)C=C[C@]4(C)[C@@]3(F)[C@@H](O)C[C@]2(C)[C@@]1(O)C(=O)CO [Dex, dexamethasone, reference compound]
inhibition at 0.01 µM ([4]; Homo sapiens, Chondrocyte, Dex 10 nanomolar final, IL-1β 500 pg/mL, 48 h): 100%
concentration at which statistical significance of PGE2 suppression was observed ([4]; IL-1β 48 h): 100 picomolar
increased Dex potency by 100 micromolar DA [2]: 1.969 ×
IC50 ([2]; THP-1, Dex phosphate alone, 1 picomolar to 10 micromolar): 0.046 µM
IC50 ([2]; THP-1, Dex with addition of 100 micromolar DA): 0.0234 µM
Observed Relative expression of MMP13 [5, 13]: −38.6 fold
Observed Relative expression of MMP13 ([5]; 28-day monolayer culture): −3.6 fold

C[C@@H]1C[C@H]2[C@@H]3CCC4=CC(=O)C=C[C@]4(C)[C@@]3(F)[C@@H](O)C[C@]2(C)[C@@]1(O)C(=O)COP(=O)(O)O [Dxp, dexamethasone phosphate, reference compound]
SOX9 expression [6, 14]: decreased expression of SOX9
SOX9 expression ([6]; low passage osteoarthritic chondrocytes, 7, 14, 28 days): temporal decrease in expression of SOX9
MMP13 transcription [7]: reduce MMP13 transcription

O=C(O)CCCCC1CCSS1 (stereo not drawn) [LA, α-lipoic acid]
SOX9 expression [6, 14]: increased SOX9 transcription
increase in Col2a1 compared to controls [8]: 218 fold
increase in SOX9 transcription [9]: 4 fold
inhibition at 1 µM ([10]; LA 1 μM final): 33%
inhibition at 10 µM ([10]; LA 10 μM final): 44%
inhibition at 100 µM ([10]; LA 100 μM final): 93%
inhibition at 10 µM [3, 12]: 85%

IL-1RA: IL-1 Receptor Antagonist, blocks IL-1β signaling
PGE2 release after pretreatment (5 minutes, 1 hour, or 2 hours) then IL-1β 10 minutes or 1 hour [11]: consistently higher than PGE2 levels in DA treated cells

hyaluronic acid [HA]
Observed Relative expression of MMP13 [5, 13]: −1.6 fold
Observed Relative expression of MMP13 ([5]; 28-day monolayer culture): 1.0 fold
